{"source": "patent US9616053B2", "about": "“Indolin-2-one or pyrrolo-pyridin/pyrimidin-2-one derivatives” (Hoffmann-La Roche Inc., priority 2013, dated 2017)", "key": {"[1]": {"system": "L-687,414-induced hyperlocomotion", "assay": "L-687,414-induced hyperlocomotion (Digiscan locomotor activity)", "format": "in vivo, mouse", "details": "Mus musculus, at the same time as s.c. 50 mg/kg L-687,414, mice; for inhibition at 30 mg/kg: dose ip 30 mg/kg", "excerpt": "The authors described that hyperlocomotion induced by L-687,414 was inhibited by a series of known antipsychotic drugs. […] These findings predict antipsychotic activity for the present compounds, making them useful for the treatment of positive (psychosis) and negative symptoms of schizophrenia, substance abuse, alcohol and drug addiction, obsessive-compulsive disorders, cognitive impairment, bipolar disorders, mood disorders, major depression, resistant depression, anxiety disorders, Alzheimer's disease, autism, Parkinson's disease, chronic pain, borderline personality disorder, sleep disturbances, chronic fatigue syndrome, stiffness, antiinflammatory effects in arthritis and balance problems.\nThe described compounds of formula I reduce L-687,414-induced hyperlocomotion. This was assessed by using a computerized Digiscan 16 Animal Activity Monitoring System (Omnitech Electronics, Columbus, Ohio) to quantify locomotor activity. Animals were kept under a 12 h light/dark cycle and experiments were performed during the light period. Each activity monitoring chamber consisted of a Plexiglas box (41×41×28 cm; W×L×H) with sawdust bedding on the floor surrounded by invisible horizontal and vertical infrared sensor beams. The test boxes were divided by a Plexiglas cross providing each mouse with 20×20 cm of moving space. Cages were connected to a Digiscan Analyzer linked to a computer that constantly collected the beam status information. Records of photocell beam interruptions for individual animals were taken every 5 min over the duration of the experimental session and the sum of the first 6 periods was used as the final parameter. Compounds were administered either p.o. 15 min before a s.c. injection of 50 mg/kg of L-687,414, or i.p. at the same time as a s.c. injection of 50 mg/kg of L-687,414. Mice were then transferred from their home cage to the recording chambers for a 15-min habituation phase allowing free exploration of the new environment. Horizontal activity was then recorded for a 30-min time period. The % inhibition of L-687,414-induced hyperlocomotion was calculated according to the equation: ((Veh+L-687,414 horizontal activity−drug+L-687,414 horizontal activity)Veh+L-687,414 horizontal activity)×100\nID50 values, defined as doses of each compound producing 50% inhibition of L-687,414-induced hyperlocomotion, were calculated by linear regression analysis of a dose-response data using an Excel-based computer-fitting program.\nAs data was not presupposed to be normally distributed, groups treated with test compounds were statistically compared with the control (vehicle-treated) group using one-tailed Mann Whitney U tests. In statistics, the Mann-Whitney Utest (also called the Mann-Whitney-Wilcoxon (MWW) or Wilcoxon rank-sum test) is a non-parametric statistical hypothesis test for assessing whether one of two samples of independent observations tends to have larger values than the other. It is one of the most well-known non-parametric significance tests. […] P values given in table 1 are one-tailed since only decreases in locomotion were expected and tested for (Mann, H. B., Whitney, D. R. (1947), “On a Test of Whether one of Two Random Variables is Stochastically Larger than the Other”, Annals of Mathematical Statistics, 18 (1), 50-60)."}, "[2]": {"system": "behaviors of compound-treated mice", "assay": "SmartCube behavioral signature and similarity analysis", "format": "in vivo", "design": "key to discrimination rate vs Clozapine / discrimination rate vs Olanzapine / discrimination rate vs Risperidone: discrimination rate as fraction; 0.5 = zero distinguishability", "details": "25 mg/kg i.p.; for SmartCube behavioral signature: compared with reference drug classes; for discrimination rate vs Clozapine / discrimination rate vs Olanzapine / discrimination rate vs Risperidone: rate of 0.70 or lower = similar", "excerpt": "In addition to the reversal of L-687,414 induced hyperlocomotion experiment as described above, some compounds of the present invention have been tested in SmartCube®, an automated system in which the behaviors of compound-treated mice in response to multiple challenges are captured by digital video and analyzed with computer algorithms (Roberds et al., Frontiers in Neuroscience, 2011, Vol. 5, Art. 103, 1-4). In this way, the neuro-pharmacological effects of a test compound can be predicted by similarity to major classes of compounds, such as antipsychotics, anxiolytics and antidepressants.\nAs mentioned above, some compounds have been tested in SmartCube®, an analytical system developed by PsychoGenics Inc.\nSmartCube® was used to compare the behavioral signature of a test compound to a database of behavioral signatures obtained from a large set of clinically approved reference drugs, grouped per indications. In this way, the neuro-pharmacological effects of a test compound can be predicted by similarity to major classes of compounds, such as antipsychotics, anxiolytics and antidepressants. This approach is ideally suited to screen collections of existing drugs or drug candidates with previously unknown neuropharmacology, which could expedite the development of new and unexpected treatments for psychiatric disorders.\nSome compounds of the present invention were injected i.p. at different doses 15 minutes before the test. At least 8 mice were used in each treatment group. Digital videos of the subjects were processed with computer vision algorithms to extract over 2000 dependent measures including frequency and duration of many different behavioral states. The results of the classifications are presented as bar charts for each compound and dose (mg/kg), the Y-axis indicates the relative probability that the test compound will show efficacy in the specific CNS indication.\nCompounds of the present invention show similar signatures to those of atypical antipsychotics. An independent analysis was performed on the unclassified data to determine the similarity of the example compounds to active doses of known atypical antipsychotics. For this analysis, we use discrimination rate as the measure of separability between the two drugs, i.e. one drug's “distinguishability” from another. A rate equal to 50% (or 0.5) corresponds to zero distinguishability. […] In most cases, the example compounds show a similarity to risperidone, clozapine and olanzapine with a discrimination rate of ≦0.70."}}}
{"smiles": "CN1C(=O)C(C)(C)c2ccc(-c3cccnn3)cc21", "note": "[Example 13, 1,3,3-Trimethyl-6-(pyridazin-3-yl)indolin-2-one]", "values": [{"measurement": "inhibition at 30 mg/kg", "setting": "[1]", "result": 76.9, "unit": "%"}, {"measurement": "SmartCube behavioral signature", "setting": "[2]", "result": "similarity to atypical antipsychotics"}, {"measurement": "discrimination rate vs Clozapine", "setting": "[2]", "result": 0.69}, {"measurement": "discrimination rate vs Olanzapine", "setting": "[2]", "result": 0.70}, {"measurement": "discrimination rate vs Risperidone", "setting": "[2]", "result": 0.72}]}
{"smiles": "Cc1ncc(-c2ccc3c(c2)N(CCCS(=O)(=O)C2CC2)C(=O)C3(C)C)cn1", "note": "[Example 54, 1-(3-(Cyclopropylsulfonyl)propyl)-3,3-dimethyl-6-(2-methylpyrimidin-5-yl)indolin-2-one]", "values": [{"measurement": "SmartCube behavioral signature", "setting": "[2]", "result": "similarity to atypical antipsychotics"}, {"measurement": "discrimination rate vs Clozapine", "setting": "[2]", "result": 0.69}, {"measurement": "discrimination rate vs Olanzapine", "setting": "[2]", "result": 0.61}, {"measurement": "discrimination rate vs Risperidone", "setting": "[2]", "result": 0.63}]}
{"smiles": "CC1(C)C(=O)Nc2cc(-n3ccnc3)ccc21", "note": "[Example 58, 6-Imidazol-1-yl-3,3-dimethyl-1,3-dihydro-indol-2-one]", "values": [{"measurement": "SmartCube behavioral signature", "setting": "[2]", "result": "similarity to atypical antipsychotics"}, {"measurement": "discrimination rate vs Clozapine", "setting": "[2]", "result": 0.63}, {"measurement": "discrimination rate vs Olanzapine", "setting": "[2]", "result": 0.69}, {"measurement": "discrimination rate vs Risperidone", "setting": "[2]", "result": 0.66}]}
{"smiles": "Cc1ncc(-c2ccc3c(c2)N(C)C(=O)C3(C)C)o1", "note": "[Example 71, 1,3,3-Trimethyl-6-(2-methyloxazol-5-yl)indolin-2-one]", "values": [{"measurement": "inhibition at 30 mg/kg", "setting": "[1]", "result": 68.5, "unit": "%"}, {"measurement": "SmartCube behavioral signature", "setting": "[2]", "result": "similarity to atypical antipsychotics"}, {"measurement": "discrimination rate vs Clozapine", "setting": "[2]", "result": 0.79}, {"measurement": "discrimination rate vs Olanzapine", "setting": "[2]", "result": 0.66}, {"measurement": "discrimination rate vs Risperidone", "setting": "[2]", "result": 0.63}]}
{"smiles": "CC1(C)C(=O)Nc2cc(-c3cn(C4CC4)cn3)ccc21", "note": "[Example 113, 6-(1-Cyclopropyl-1H-imidazol-yl)-3,3-dimethylindolin-2-one]", "values": [{"measurement": "inhibition at 30 mg/kg", "setting": "[1]", "result": 83.9, "unit": "%"}]}
{"smiles": "Cc1cc(-c2ncc3c(n2)N(C2CC2)C(=O)C3(C)C)ccn1", "note": "[Example 114, 7-Cyclopropyl-5,5-dimethyl-2-(2-methylpyridin-4-yl)-5H-pyrrolo[2,3-d]pyrimidin-6(7H)-one]", "values": [{"measurement": "inhibition at 20 mg/kg", "setting": "[1]; dose ip 20 mg/kg", "result": 42, "unit": "%"}]}
{"smiles": "Cc1ncc(-c2ccc3c(c2)N(CCOC(F)(F)F)C(=O)C3(C)C)cn1", "note": "[Example 128, 3,3-Dimethyl-6-(2-methylpyrimidin-5-yl)-1(2-(trifluoromethoxy)ethyl)indolin-2-one]", "values": [{"measurement": "inhibition at 30 mg/kg", "setting": "[1]", "result": 66.1, "unit": "%"}]}
{"smiles": "Cc1ncc(-c2ccc3c(c2)N(CC2COC2)C(=O)C3(C)C)cn1", "note": "[Example 129, 3,3-Dimethyl-6-(2-methylpyrimidin-5-yl)-1-(oxetan-3-ylmethyl)indolin-2-one]", "values": [{"measurement": "inhibition at 30 mg/kg", "setting": "[1]", "result": 95.5, "unit": "%"}]}
{"smiles": "Cc1ncc(-c2ccc3c(c2)N(CC(O)C(F)(F)F)C(=O)C3(C)C)cn1", "note": "(centres unmarked) [Example 130, 3,3-Dimethyl-6-(2-methylpyrimidin-5-yl)-1-(3,3,3-trifluoro-2-hydroxypropyl)indolin-2-one]", "values": [{"measurement": "inhibition at 30 mg/kg", "setting": "[1]", "result": 89.4, "unit": "%"}]}
{"smiles": "Cc1ncc(-c2ccc3c(c2)N(CCCF)C(=O)C3(C)C)cn1", "note": "[Example 131, 1-(3-Fluoropropyl)-3,3-dimethyl-6-(2-methylpyrimidin-5-yl)indolin-2-one]", "values": [{"measurement": "inhibition at 30 mg/kg", "setting": "[1]", "result": 95.3, "unit": "%"}]}
{"smiles": "Cc1ncc(-c2ccc3c(c2)N(CCF)C(=O)C3(C)C)cn1", "note": "[Example 132, 1-(2-Fluoroethyl)-3,3-dimethyl-6-(2-methylpyrimidin-5-yl)indolin-2-one]", "values": [{"measurement": "inhibition at 30 mg/kg", "setting": "[1]", "result": 95.3, "unit": "%"}]}
{"smiles": "CCn1cnc(-c2ccc3c(c2)N(C)C(=O)C3(C)C)c1", "note": "[Example 133, 6-(1-Ethyl-1H-imidazol-4-yl)-1,3,3-trimethylindolin-2-one]", "values": [{"measurement": "inhibition at 30 mg/kg", "setting": "[1]", "result": 44, "unit": "%"}]}
{"smiles": "CN1C(=O)C(C)(C)c2ccc(-c3cn(CC(F)(F)F)cn3)cc21", "note": "[Example 134, 1,3,3-Trimethyl-6-(1-(2,2,2-trifluoroethyl)-1H-imidazol-4-yl)indolin-2-one]", "values": [{"measurement": "inhibition at 30 mg/kg", "setting": "[1]", "result": 79.8, "unit": "%"}]}
{"smiles": "Cc1cc(-c2cc3c(cn2)C2(CC2)C(=O)N3C)ccn1", "note": "[Example 136, 1′-Methyl-6′-(2-methylpyridin-4-yl)spiro[cyclopropane-1,3′-pyrrolo[3,2-c]pyridin]-2′(1′H)-one]", "values": [{"measurement": "inhibition at 30 mg/kg", "setting": "[1]", "result": 89.7, "unit": "%"}]}
{"smiles": "O=C1N(C2CC2)c2cc(-c3cccnc3)ncc2C12CC2", "note": "[Example 140, 1′-Cyclopropyl-6′-(pyridin-3-yl)spiro[cyclopropane-1,3′-pyrrolo[3,2-c]pyridin]-2′(1′H)-one]", "values": [{"measurement": "inhibition at 30 mg/kg", "setting": "[1]", "result": 69.3, "unit": "%"}]}
{"smiles": "Cc1cc(-c2ccc3c(c2)N(C)C(=O)C3(C)C)on1", "note": "[Example 143, 1,3,3-Trimethyl-6-(3-methylisoxazol-5-yl)indolin-2-one]", "values": [{"measurement": "inhibition at 30 mg/kg", "setting": "[1]", "result": 65.7, "unit": "%"}]}
{"smiles": "CC1(C)C(=O)Nc2cc(-n3cnc(C(O)C(F)(F)F)c3)ccc21", "note": "(centres unmarked) [Example 168, 3,3-Dimethyl-6-[4-(2,2,2-trifluoro-1-hydroxy-ethyl)imidazol-1-yl]indolin-2-one]", "values": [{"measurement": "inhibition at 30 mg/kg", "setting": "[1]", "result": 77, "unit": "%"}]}
{"smiles": "COCC(CN1C(=O)C(C)(C)c2ccc(-c3cnc(C)nc3)cc21)OC", "note": "(centres unmarked) [Example 175, 1-(2,3-dimethoxypropyl)-3,3-dimethyl-6-(2-methylpyrimidin-5-yl)indolin-2-one]", "values": [{"measurement": "inhibition at 30 mg/kg", "setting": "[1]", "result": 95.3, "unit": "%"}]}
